Experiments:
Type in all cases: in vivo, mice
dry eye model [1] = assay: Fluorescein staining score, dry eye model by 0.2% benzalkonium chloride instillation (Example 2); details: 0.003% (w/v) apocynin in PBS, 3 μL 4 times daily, two days after start; 0.2% benzalkonium chloride model; FIG. 4
Text: After acclimating male C57BL6 mice ([…]) to the experimental environment, those with almost uniform weight values and no eye abnormalities were divided into the following 3 groups (n=3). • 7 weeks old/normal (non-dry eye group) • 7 weeks old/dry eye model+control (solvent eye drop) group • 7 weeks old/dry eye model+apocynin eye drop group The dry eye model was created by instilling a 0.2% benzalkonium chloride solution based on the method of Lin et al. (Non-patent Document 4). In this model, instillation of the 0.2% benzalkonium chloride solution causes dry eye symptoms such as shortened BUT, decreased tear volume, and corneal epithelial damage after 1 day of administration (Non-patent Document 4). After the benzalkonium chloride solution was instilled twice daily for 2 days, PBS alone was administered to the control group, and for the test group, a solution of apocynin 0.003% (w/v) suspended in PBS was administered to both eyes at 3 μL each, 4 times daily. Two days after the start of apocynin instillation, 1 μL of 0.1% fluorescein sodium solution was instilled into each of both eyes under isoflurane anesthesia, and stained images were taken under a blue filter using a slit lamp (Kowa Co., Ltd., SL-17). The fluorescein staining scores were analyzed (FIG. 4).

dry eye model [2] = assay: Tear film breakup time (BUT) test, dry eye model by systemic (intraperitoneal) erlotinib (Example 3); details: 0.003% (w/v) apocynin in PBS, 3 μL twice a day, one week after start; erlotinib 50 mg/kg/day i.p. model; FIG. 5
Protocol: (§1) After acclimating male C57BL6 mice (7 weeks old) to the experimental environment, those with almost uniform body weight values and no eye abnormalities were divided into the following 3 groups (n=4). • 7 weeks old/normal (non-dry eye group) • 7 weeks old/dry eye model+control (solvent eye drop) group • 7 weeks old/dry eye model+apocynin eye drop group The dry eye model was prepared by dissolving erlotinib at a concentration of 5 mg/ml in 0.5% methylcellulose solution and administering it by intraperitoneal injection at a concentration of 50 mg/kg/day daily from the start of the study. The solvent 0.5% methylcellulose solution was similarly administered to the normal non-administration group. After one week of administration of erlotinib, the control group received PBS alone, and the test group received a solution of 0.003% (w/v) apocynin suspended in PBS twice a day at both eyes with 3 μL each. One week after the start of instillation, 1 μL of 0.1% sodium fluorescein solution was instilled into each of both eyes under isoflurane anesthesia, and the BUT test was performed under a blue filter using a slit lamp (Kowa Co., Ltd., SL-17) (FIG. 5).

meibomian glands = assay: Meibomian gland silhouette and area, dry eye model by systemic erlotinib (Example 3); details: 0.003% (w/v) apocynin eye drop, 2 weeks after start of instillation
Protocol: as §1, with “5). […] In addition, the image analysis software ImageJ was used to quantify the area of the meibomian gland silhouette image of the upper eyelid image (FIG. 7).” for “5).”

dry eye model [3] = assay: Schirmer test (tear volume), 0.2% benzalkonium chloride dry eye model, Comparative Study 2 (Example 5); details: 2 days after start, compared to hyaluronic acid and diquafosol sodium groups, FIG. 10
Text: (§2) After acclimating male C57BL6 mice (7 weeks old) to the experimental environment, those with almost uniform weight values and no eye abnormalities were divided into the following groups (n=3 to 4). • 7 weeks old/normal (non-dry eye group) • 7 weeks old/dry eye model+control (solvent eye drop) group • 7 weeks old/dry eye model+0.003% (w/v) apocynin eye drop group • 7 weeks old/dry eye model+0.03% (w/v) apocynin eye drop group • 7 weeks old/dry eye model+3% diquafosol sodium eye drop group • 7 weeks old/dry eye model+0.5% (w/v) hyaluronic acid eye drop group A dry eye model was created by instilling 3 μL of the 0.2% benzalkonium chloride solution into each of both eyes twice a day for 8 days. Then, the control group received PBS alone, and the test group received 0.003% (w/v), 0.03% (w/v) apocynin and 0.5% (w/v) hyaluronic acid in PBS. The 3% diquafosol sodium eye drop was instilled into each of both eyes at 3 μL, twice a day for 9 days. Two days after the start of instillation of the comparative test drug, the Schirmer test was performed to evaluate the tear volume.

dry eye model [4] = assay: Fluorescein staining score, 0.2% benzalkonium chloride dry eye model, Comparative Study 2 (Example 5)
Text: as §2, with “In Example 5, 1, 2, 5, and 9” for “Two”, “drug, 1 μL of 0.1% sodium fluorescein solution was instilled into each of both eyes. Fluorescein-stained images were observed under a blue filter using a slit lamp (Kowa Co., Ltd., SL-17), and” for “drug,”, “degree of corneal epithelial damage” for “Schirmer test”, “scored.” for “performed to evaluate the tear volume.”

## COc1cc(C(C)=O)ccc1O [apocynin, 4-hydroxy-3-methoxyacetophenone]
Dry eye model [1]
  corneal epithelial damage (fluorescein staining score): significantly improved
Dry eye model [2]
  tear film breakup time (BUT): significantly improved
Meibomian glands; FIG. 7A
  missing parts of meibomian glands (silhouette image of upper eyelid): reduced the missing parts
Meibomian glands; ImageJ, FIG. 7B
  meibomian gland silhouette area (atrophy of the meibomian glands): significantly inhibits atrophy of the meibomian glands
Dry eye model [3]; 0.003% apocynin eye drop
  tear volume (Schirmer test): significantly improved
Dry eye model [3]; 0.03% apocynin eye drop
  tear volume (Schirmer test): significantly improved
Dry eye model [4]; 0.003% apocynin eye drop, 9 days after start, compared to control, hyaluronic acid and diquafosol sodium groups, FIG. 11B
  fluorescein staining score (corneal epithelial damage): significantly improved
Dry eye model [4]; 0.03% apocynin eye drop, 9 days after start, compared to control, hyaluronic acid and diquafosol sodium groups, FIG. 11B
  fluorescein staining score (corneal epithelial damage): significantly improved
Dry eye model [4]; two days after start, compared with control, 0.03% apocynin, 0.5% (w/v) hyaluronic acid or 3% diquafosol sodium twice a day, FIG. 11A
  fluorescein staining score (corneal epithelial damage): decreased significantly
